Marks after values point to notes of the source that are not given here.
Columns and labels:
C2C12 myotubes [1] = experiment: Protein synthesis (tritiated leucine incorporation) in C2C12 myotubes; type: cell-based, mice; details: 100 ng/mL
Experimental: For the protein synthesis assay, growing cells were harvested and plated at a density of 30 000 cells per well in a 24 well plate. Cells were grown for 48 h in 5% CO2 at 37° C. After cells reached 80% confluence, the medium was replaced with differentiating medium (DMEM+2% FBS). After 5 days, myoblasts were fused into multinucleated myotubes. Protein synthesis was determined by measuring the incorporation of the tritiated amino acid leucine. Briefly, 1 h prior leucine challenge, cells were incubated in amino acid free-medium. Then cells were incubated for 2 h30 in the presence of: radiolabelled leucine 5 μCi/mL and IGF1 100 ng/mL or plant extract in the presence of normal (0.8 mM) or low (0.08 mM) concentration of amino acids and with DMSO 0.002%
Five different preparations of Rhaponticum extract at three concentrations were incubated for 2 h30 in the presence of differentiated C2C12 myotubes and tritiated leucine (5 μCi). At the end of the incubation cells were lysed, total soluble proteins were quantified and level of tritiated leucine incorporated into cells was counted. Mean±SEM. *p<0.05; **p<0.01; ***p<0.001 vs control value.
For this study, C2C12 cells were obtained as described in EXAMPLE 12. Protein synthesis assay was performed as described in EXAMPLE 13, except that radiolabelled leucine 5 μCi/mL and IGF1 100 ng/mL, F0 extract at 1, 5 and 10 μg/ml or Rhodiola extract at 10, 104 and 417 μg/ml in the presence of normal (0.8 mM) concentration of amino acids and with DMSO 0.005% were used.
For this study, C2C12 cells were obtained as described in EXAMPLE 12. Protein synthesis assay was performed as described in EXAMPLE 13, except that radiolabelled leucine 5 μCi/mL and IGF1 100 ng/mL, F0 extract at 1 and 10 μg/ml, or Rhodiola extract at 1 and 10 μg/ml or combination of F0 with Rhodiola at different concentrations in the presence of normal (0.8 mM) concentration of amino acids and with DMSO 0.005% was used.
The C2C12 skeletal muscle cells were obtained as in EXAMPLE 12. The protein synthesis assay was performed as in EXAMPLE 13 and 14 except that radiolabelled leucine 5 μCi/mL and IGF1 100 ng/mL, F0 extract at 11.4 and 22.9 μg/ml, or F0 dry extract at 6.5 and 13 μg/ml or F1 extract at 13.4 and 26.7 μg/ml or F5′ extract at 1 and 1.9 μg/ml in the presence of normal (0.8 mM) concentration of amino acids and with DMSO 0.005%. At the end of the experiments supernatants were discarded and cells were lysed in 0.1N sodium hydroxide for 30 min. The cell soluble fraction-associated radioactivity was then counted and protein quantification was determined using the coloric Lowry method.
Each condition is tested in n=6. IGF1 100 ng/ml is used as a positive control of the protein synthesis stimulation and signaling. Results of protein synthesis are expressed in cpm/μL/2.5 hrs and in % of untreated control condition (100%).

atrogin gene expression [2] = details: 24 h incubation, 10 ng/mL; literature (Latres, Stitt); cited from earlier work
[3] = test system: Akt phosphorylation on threonine 308; experiment: Akt phosphorylation on threonine 308 in C2C12 myotubes (ELISA); type: cell-based, mice; details: 100 ng/mL, 2 h
Experimental: (§1) Growing cells were harvested and plated at a density of 170 000 cells per well in a 6 well plate. Cells were grown for 48 h in 5% CO2 at 37° C. After cells reached 80% confluence, the medium was replaced with differentiating medium (DMEM+2% FBS). After 5 days, myoblasts were fused into multinucleated myotubes. 1 h before starting the experiment, cells were incubated in Krebs medium to deprived cells of amino acids.
(§2) Cells were treated with five preparations of Rhaponticum plant extract at 3 concentrations in the presence of normal (0.8 mM) or low (0.08 mM) concentration of amino acids and with DMSO 0.002% for 2 h.
(§3) At the end of the experiment, cells were lysed in cell lysate buffer (100 μL per well) and centrifuged to isolate the soluble protein in supernatant. Proteins from this cellular assay were quantified using a colorimetric assay derived from LOWRY method. Therefore, 50 μg of total protein in 100 μL lysis buffer were transferred into microwell strips coated with pS6K1 or pAkt antibody and incubated 2 h at 37° C. […] Intensity of the yellow color was readable on a spectrophotometer at 450 nm and directly proportional to pS6K1 or Akt amount detected.
Results of phosphorylated Akt is expressed in absorbance per μg of protein (Abs/μg protein) after 2 hrs incubation and in % of untreated control condition (100%). […]

atrogin gene expression [4] = experiment: Atrogin gene expression in C2C12 myotubes (qPCR); type: cell-based, mice; details: positive control in this experiment
Experimental: (§4) For the gene expression assay, growing cells were harvested and plated at a density of 30 000 cells per well in a 24 well plate. Cells were grown for 48 h in 5% CO2 at 37° C. After cells reached 80% confluence, the medium was replaced with differentiating medium (DMEM+2% FBS). After 5 days, myoblasts were fused into multinucleated myotubes.
(§5) Cells were treated with F0 extract at 1 and 10 μg/ml, or Rhodiola extract at 1 and 10 μg/ml or combination of F0 with Rhodiola at different concentrations, for 6 h. At the end of the experiment, C2C12 cells were lyzed in trizol solution and RNA was extracted and purified using the phenol/chloroform method. RNA amount after extraction was quantified by spectrophotometer (260 nm/280 nm/320 nm) and suspended at a final concentration of 1 μg/1 μL. […]
Combination of Rhaponticum F0 and Rhodiola extracts at two different concentrations each were incubated for 6 h in the presence of differentiated C2C12 myotubes. At the end of the incubation cells were lysed and RNA was extracted, converted into cDNA to perform a quantitative PCR. […]

[5] = test system: myostatin gene expression; experiment: Myostatin gene expression in C2C12 myotubes (qPCR); type: cell-based, mice
Experimental: as §4, §5
FIGS. 23a, 23b, 24a, and 24b: Effect of co-incubation of Rhaponticum F0 and Rhodiola extracts on myostatin gene expression in C2C12 myotubes. […] At the end of the incubation cells were lysed and RNA was extracted, converted into cDNA to perform a quantitative PCR. […]

C2C12 myotubes [6] = details: low or normal concentration of amino acids; literature (Kazi, Broussard); cited from earlier work
[7] = test system: S6K1 phosphorylation on threonine 389; experiment: S6K1 phosphorylation on threonine 389 in C2C12 myotubes (ELISA); type: cell-based, mice; details: LOW AMINO ACID (0.08 mM), Step 1; 100 ng/mL; 2 h; % of untreated control
Experimental: as §1, §2, §3
Results of phosphorylated T389 S6 kinase1 is expressed in absorbance per μg of protein (Abs/μg protein) after 2 hrs incubation and in % of untreated control condition (100%). […]

Substance: Insulin like growth factor-1 [IGF-1]
- protein synthesis (C2C12 myotubes [1]; LOW AMINO ACID (0.08 mM), Step 1, 2 h30, % of untreated control): 145%**
- induction of protein synthesis vs untreated control (C2C12 myotubes [1]; step 1, low (0.08 mM) amino acids, DMSO 0.002%): +45%
- induction of protein synthesis vs untreated control (C2C12 myotubes [1]; step 1, normal (0.8 mM) amino acids, DMSO 0.002%): +21%
- induction of protein synthesis vs untreated control (C2C12 myotubes [1]; step 2a, normal (0.8 mM) amino acids, DMSO 0.005%): +27%
- induction of protein synthesis vs untreated control (C2C12 myotubes [1]; step 3, normal (0.8 mM) amino acids, DMSO 0.005%): +25%
- inhibition of atrogin gene expression (atrogin gene expression [2]): around 40%
- Akt phosphorylation activated by a factor [3]: 1.6
- change in atrogin gene expression vs control (atrogin gene expression [4]): −59%
- inhibitory effect on myostatin gene expression ([5]; internal data): 20-40%
- change in myostatin gene expression vs control ([5]; positive control in this experiment): −25%
- increase in protein synthesis (C2C12 myotubes [6]): 20-50%
- pS6K [7]: 479%**

From US10258658B2, “Compositions and methods for improved muscle metabolism” (Naturex SA, priority 2015, dated 2019)
